How the values were obtained:
Format in all cases: cell-based
hNOD1 = biological target: T1, hNOD1 (Homo sapiens, UniProt Q9Y239); assay: Human NLR antagonist screening, NF-κB SEAP reporter in HEK293 cells; conditions: antagonist mode, Ami 1 μM, +C12-iE-DAP 100 ng/mL, No Sample 10, Control− 1
T1 construct: expressed in transfected cells; host or cells: HEK293
T1 sequence (Q9Y239 1-953): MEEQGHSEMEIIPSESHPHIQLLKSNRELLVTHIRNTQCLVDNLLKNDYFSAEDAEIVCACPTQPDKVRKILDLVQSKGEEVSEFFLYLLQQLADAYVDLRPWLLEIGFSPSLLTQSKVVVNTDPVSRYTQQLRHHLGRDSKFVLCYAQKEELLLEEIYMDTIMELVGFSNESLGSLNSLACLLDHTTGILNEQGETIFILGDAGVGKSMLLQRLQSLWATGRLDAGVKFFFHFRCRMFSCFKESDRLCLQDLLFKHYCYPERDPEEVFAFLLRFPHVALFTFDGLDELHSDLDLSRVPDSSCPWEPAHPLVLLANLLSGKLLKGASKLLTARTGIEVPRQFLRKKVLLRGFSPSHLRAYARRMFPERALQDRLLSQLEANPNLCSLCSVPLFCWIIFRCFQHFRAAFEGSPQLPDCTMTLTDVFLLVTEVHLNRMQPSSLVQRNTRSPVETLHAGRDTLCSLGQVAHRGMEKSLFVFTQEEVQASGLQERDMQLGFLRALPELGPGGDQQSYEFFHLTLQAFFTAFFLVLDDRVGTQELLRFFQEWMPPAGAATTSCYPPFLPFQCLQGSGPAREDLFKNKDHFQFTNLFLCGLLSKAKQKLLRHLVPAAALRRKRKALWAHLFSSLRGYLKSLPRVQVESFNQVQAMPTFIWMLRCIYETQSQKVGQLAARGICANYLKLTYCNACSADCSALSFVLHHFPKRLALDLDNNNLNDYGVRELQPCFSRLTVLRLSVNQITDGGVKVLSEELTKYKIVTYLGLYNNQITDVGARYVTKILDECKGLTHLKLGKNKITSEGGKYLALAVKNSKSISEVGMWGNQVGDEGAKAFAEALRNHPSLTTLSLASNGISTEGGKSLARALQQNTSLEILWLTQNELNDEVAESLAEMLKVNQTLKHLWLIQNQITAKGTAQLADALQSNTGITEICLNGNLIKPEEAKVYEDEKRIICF
Procedure: (§1) Toll-Like Receptor (TLR), NOD-Like Receptor (NLR) and C-Type Lectin Receptor (CLR) stimulation were tested by assessing NF-κB activation in HEK293 cells expressing a given TLR, NLR or CLR. The activity of the test articles was tested at one concentration and compared to control ligands. These steps were performed in triplicate. hNOD1: C12-iE-DAP at 1 μg/mL Antagonist: 100 ng/mL. In a 96-well plate (200 μL total volume) containing the appropriate cells (50,000-75,000 cells/well), 20 μL of the test article or the positive control ligand was added to the wells. For the antagonist assay, the test article was incubated with the cells, at 37° C. with 5% CO2, for 30 minutes prior to the addition of the positive control ligand to the wells. The media added to the wells was designed for the detection of NF-κB induced SEAP expression. After a 16-24 hr incubation the optical density (OD) was read at 650 nm on a Molecular Devices SpectraMax 340PC absorbance detector. Fold induction (ratio of average induced value to average non-induced value) was determined for each TLR, NOD1, NOD2, Dectin-1a, Dectin-1b.

Human Dectin-1a = biological target: T2, Human Dectin-1a (Homo sapiens, UniProt Q9BXN2); assay: Human CLR antagonist screening, NF-κB SEAP reporter in HEK293 cells; conditions: antagonist mode, Ami 1 μM
T2 construct: expressed in transfected cells; host or cells: HEK293
T2 sequence (Q9BXN2 1-247): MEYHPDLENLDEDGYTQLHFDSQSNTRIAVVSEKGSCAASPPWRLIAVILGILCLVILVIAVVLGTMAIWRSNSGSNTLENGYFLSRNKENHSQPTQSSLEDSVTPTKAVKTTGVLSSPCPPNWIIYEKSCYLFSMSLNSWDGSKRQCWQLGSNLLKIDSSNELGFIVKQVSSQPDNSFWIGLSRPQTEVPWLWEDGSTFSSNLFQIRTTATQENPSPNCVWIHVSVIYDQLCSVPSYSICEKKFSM
Procedure: as §1, with “triplicate. hDectin-1a and hDectin-1b: WGP Soluble (0-glucan from S. cerevisiae)” for “triplicate. hNOD1: C12-iE-DAP”, “at 10 ng/mL Antagonist: 5 ng/mL. Curdlan at 100 μg/mL. Antagonist: 100 μg/mL. Zymosan Depleted (hot alkali treated S. cerevisiae) at 5” for “at 1”, “Antagonist: 3 μg/mL.” for “Antagonist: 100 ng/mL.”

Human Dectin-1b = biological target: T3, Human Dectin-1b (Homo sapiens, UniProt Q9BXN2); assay: as above; conditions: antagonist mode, Ami 1 μM
T3 construct: expressed in transfected cells; host or cells: HEK293
T3 sequence (Q9BXN2 1-201 isoform Q9BXN2-2): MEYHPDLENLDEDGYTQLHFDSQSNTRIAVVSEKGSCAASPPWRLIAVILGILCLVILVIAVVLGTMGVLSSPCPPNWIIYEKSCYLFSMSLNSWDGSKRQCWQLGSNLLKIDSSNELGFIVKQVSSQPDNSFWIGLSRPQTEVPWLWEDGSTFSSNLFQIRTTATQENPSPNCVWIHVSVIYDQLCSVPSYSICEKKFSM
Procedure: as §1, with “triplicate. hDectin-1a and hDectin-1b: WGP Soluble (0-glucan from S. cerevisiae)” for “triplicate. hNOD1: C12-iE-DAP”, “at 10 ng/mL Antagonist: 5 ng/mL. Curdlan at 100 μg/mL. Antagonist: 100 μg/mL. Zymosan Depleted (hot alkali treated S. cerevisiae) at 5” for “at 1”, “Antagonist: 3 μg/mL.” for “Antagonist: 100 ng/mL.”

CN(C)CCC=C1c2ccccc2CCc2ccccc21 [Amitriptyline]
Fold Induction (hNOD1): slight inhibitory effect
Fold Induction (hNOD1; listed as Ami): 9
Fold Induction (Human Dectin-1a; +Curdlan 100 μg/mL, No Sample 5, Control− 1): slight inhibitory effect
Fold Induction (Human Dectin-1a; +Curdlan 100 μg/mL, No Sample 5, Control− 1, listed as Ami): 4
Fold Induction (Human Dectin-1a; +WGP Soluble 5 ng/mL, No Sample 8, Control− 1): 8
Fold Induction (Human Dectin-1a; +Zymosan Depleted 3 μg/mL, No Sample 6, Control− 1): slight inhibitory effect
Fold Induction (Human Dectin-1a; +Zymosan Depleted 3 μg/mL, No Sample 6, Control− 1, listed as Ami): 4
Fold Induction (Human Dectin-1b; +Curdlan 100 μg/mL, No Sample 4, Control− 1): 4
Fold Induction (Human Dectin-1b; +WGP Soluble 5 ng/mL, No Sample 1, Control− 1): 1
Fold Induction (Human Dectin-1b; +Zymosan Depleted 3 μg/mL, No Sample 7, Control− 1): slight inhibitory effect
Fold Induction (Human Dectin-1b; +Zymosan Depleted 3 μg/mL, No Sample 7, Control− 1, listed as Ami): 6

Source: patent US11400059B2, “Treatment of pain and/or pain related symptoms associated with dysmenorrhea” (ALYRA BIOTECH PTY LTD, priority 2017, dated 2022)
